According to patent EP0038629A1, “Virazole derivatives, process for their preparation and use as antiviral agents” (priority 1980, dated 1981):
Where two headings read alike, the source gives them in different places. Marks after values point to notes of the source that are not given here.

Test system: mouse adapted strain of the A2/HK/l/68 virus
Details: 10^-4 mole/kg doses twice daily for 3 days; for Weight Change Day 0 -Day 3: dosing period, indication of toxicity

Compound | Day 8 Means Body Wt. (Expt. 1, subcutaneous) [gm] | Day 8 Means Lung WT./ Body Wt. Ratio x 100 (Expt. 1, subcutaneous) | Day 8 Means Lung Wt. (Expt. 1, subcutaneous) [mg] | Weight Change Day 3 -Day 8 (Expt. 1, subcutaneous) | Weight Change Day 0 -Day 3 (Expt. 1, subcutaneous) | Day 8 Means Body Wt. (Expt. 2, subcutaneous) [gm] | Day 8 Means Lung WT./ Body Wt. Ratio x 100 (Expt. 2, subcutaneous) | Day 8 Means Lung Wt. (Expt. 2, subcutaneous) [mg] | Weight Change Day 3 -Day 8 (Expt. 2, subcutaneous) | Weight Change Day 0 -Day 3 (Expt. 2, subcutaneous) | Day 8 Means Body Wt. (Expt. 3, oral) [gm] | Day 8 Means Lung WT./ Body Wt. Ratio x 100 (Expt. 3, oral) | Day 8 Means Lung Wt. (Expt. 3, oral) [mg] | Weight Change Day 3 -Day 8 (Expt. 3, oral) | Weight Change Day 0 -Day 3 (Expt. 3, oral)
1-[β-D-(5'-succinyl-2',3'-carbonyl)ribofuranosyl]-3-carbamoyl-1,2,4-triazole amantadine salt [Compound 6] | 22.4 | 1.25 | 273 | +0.9 | +2.4 | 21.2 | 1.30** | 266 | +0.4 | +2.1 | 22.5 | 1.25** | 275 | +0.7 | +2.6
NC(=O)c1ncn([C@@H]2O[C@H](CO)[C@@H](O)[C@H]2O)n1 [Compound 1, 1-β-D-ribofuranosyl-3-carbamoyl-1,2,4-triazole, reference compound] | 20.7 | 1.16 | 238 | +0.8 | +0.7* | 20.5 | 1.36 | 291 | +1.8 | +0.2* | 19.1 | 1.40** | 285 | -0.8 | +0.9*
